# In ChEMBL document CHEMBL1201862, “PubChem BioAssay data set” (2004):
#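 Assay format: 96-well plates, 48-hour exposure. GI50 = concentration required for 50% inhibition of growth.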 Calls of active or inactive are those of the source. Rule as the data show it: active = GI50 up to about 1.1 µM and inactive = higher.
# Legend:
# Experiment in all cases: inhibition of tumour cell growth, NCI panel, 48 h
# [1] = system: 786-0
# [2] = system: A498
# [3] = system: A549
# [4] = system: ACHN
# [5] = system: BT-549
# [6] = system: CAKI-1
# [7] = system: CCRF-CEM
# [8] = system: COLO 205
# [9] = system: DU-145
# [10] = system: EKVX
# [11] = system: HCC 2998
# [12] = system: HCT-116
# [13] = system: HCT-15
# [14] = system: HL-60
# [15] = system: HOP-62
# [16] = system: HOP-92
# [17] = system: HT-29
# [18] = system: Hs-578T
# [19] = system: K562
# [20] = system: KM12
# [21] = system: LOX IMVI
# [22] = system: M14
# [23] = system: MCF7
# [24] = system: MDA-MB-231
# [25] = system: MDA-MB-435
# [26] = system: MDA-N
# [27] = system: MOLT-4
# [28] = system: Malme-3M
# [29] = system: NCI-H226
# [30] = system: NCI-H23
# [31] = system: NCI-H460
# [32] = system: NCI-H522
# [33] = system: NCI/ADR-RES
# [34] = system: OVCAR-3
# [35] = system: OVCAR-4
# [36] = system: OVCAR-5
# [37] = system: OVCAR-8
# [38] = system: PC-3
# [39] = system: RXF 393
# [40] = system: SF-268
# [41] = system: SF-295
# [42] = system: SF-539
# [43] = system: SK-MEL-28
# [44] = system: SK-MEL-2
# [45] = system: SK-MEL-5
# [46] = system: SK-OV-3
# [47] = system: SN12C
# [48] = system: SNB-19
# [49] = system: SNB-75
# [50] = system: SR
# [51] = system: SW-620
# [52] = system: T47D
# [53] = system: TK-10
# [54] = system: U-251
# [55] = system: UACC-257
# [56] = system: UACC-62
# [57] = system: UO-31
# [58] = system: IGROV-1
smiles,measurement,setting,value
CSC(=NC1=NC(C(F)(F)F)(C(F)(F)F)N=C(c2ccccc2)O1)SC,GI50,[1],16.4 µM (inactive)
same,GI50,[2],17.7 µM (inactive)
same,GI50,[3],10.5 µM (inactive)
same,GI50,[4],3.53 µM (inactive)
same,GI50,[5],10.8 µM (inactive)
same,GI50,[6],4.49 µM (inactive)
same,GI50,[7],6.92 µM (inactive)
same,GI50,[8],14.6 µM (inactive)
same,GI50,[9],6.9 µM (inactive)
same,GI50,[10],9.27 µM (inactive)
same,GI50,[11],12.5 µM (inactive)
same,GI50,[12],4.01 µM (inactive)
same,GI50,[13],4.88 µM
same,GI50,[14],30.9 µM (inactive)
same,GI50,[15],9.1 µM (inactive)
same,GI50,[16],7.8 µM (inactive)
same,GI50,[17],16.4 µM (inactive)
same,GI50,[18],14.2 µM (inactive)
same,GI50,[19],6.1 µM (inactive)
same,GI50,[20],4.91 µM (inactive)
same,GI50,[21],5.75 µM (inactive)
same,GI50,[22],19 µM (inactive)
same,GI50,[23],14.8 µM (inactive)
same,GI50,[24],20.3 µM (inactive)
same,GI50,[25],17.5 µM (inactive)
same,GI50,[26],17.3 µM (inactive)
same,GI50,[27],6.07 µM (inactive)
same,GI50,[28],16.3 µM (inactive)
same,GI50,[29],26.9 µM (inactive)
same,GI50,[30],7.31 µM (inactive)
same,GI50,[31],12.2 µM (inactive)
same,GI50,[32],3.1 µM (inactive)
same,GI50,[33],5.31 µM (inactive)
same,GI50,[34],7.46 µM (inactive)
same,GI50,[35],10.3 µM (inactive)
same,GI50,[36],26.4 µM (inactive)
same,GI50,[37],5.98 µM (inactive)
same,GI50,[38],5.14 µM (inactive)
same,GI50,[39],5.77 µM (inactive)
same,GI50,[40],5.07 µM (inactive)
same,GI50,[41],7.13 µM (inactive)
same,GI50,[42],29.2 µM (inactive)
same,GI50,[43],38.7 µM (inactive)
same,GI50,[44],16 µM (inactive)
same,GI50,[45],16.1 µM (inactive)
same,GI50,[46],16.4 µM (inactive)
same,GI50,[47],17.1 µM (inactive)
same,GI50,[48],5.22 µM (inactive)
same,GI50,[49],3.15 µM (inactive)
same,GI50,[50],10.7 µM (inactive)
same,GI50,[51],9.38 µM (inactive)
same,GI50,[52],3.1 µM (inactive)
same,GI50,[53],7.93 µM (inactive)
same,GI50,[54],4.12 µM (inactive)
same,GI50,[55],22 µM (inactive)
same,GI50,[56],20 µM (inactive)
same,GI50,[57],24 µM (inactive)
CC(C)Oc1cccc(N2C(Nc3ccccc3)=Nc3ccncc3S2(=O)=O)c1,GI50,[1],17.7 µM (inactive)
same,GI50,[2],25.7 µM (inactive)
same,GI50,[3],20.4 µM (inactive)
same,GI50,[4],26.5 µM (inactive)
same,GI50,[5],22.4 µM (inactive)
same,GI50,[6],26 µM (inactive)
same,GI50,[7],7.55 µM (inactive)
same,GI50,[8],13.1 µM (inactive)
same,GI50,[9],42.4 µM (inactive)
same,GI50,[10],40.5 µM (inactive)
same,GI50,[11],1.69 µM (inactive)
same,GI50,[12],20.4 µM (inactive)
same,GI50,[13],20.2 µM
same,GI50,[14],0.41 µM (active)
same,GI50,[15],32.7 µM (inactive)
same,GI50,[16],16.2 µM (inactive)
same,GI50,[17],12.2 µM (inactive)
same,GI50,[18],39.7 µM (inactive)
same,GI50,[58],25.4 µM (inactive)
same,GI50,[19],76 µM (inactive)
same,GI50,[20],20.7 µM (inactive)
same,GI50,[21],17.7 µM (inactive)
same,GI50,[22],25.3 µM (inactive)
same,GI50,[23],17.6 µM (inactive)
same,GI50,[24],15.2 µM (inactive)
same,GI50,[25],11.8 µM (inactive)
same,GI50,[26],23.1 µM (inactive)
same,GI50,[27],> 100 µM (inactive)
same,GI50,[28],23.2 µM (inactive)
same,GI50,[29],24.1 µM (inactive)
same,GI50,[30],32.9 µM (inactive)
same,GI50,[31],13.3 µM (inactive)
same,GI50,[32],30.6 µM (inactive)
same,GI50,[33],19.3 µM (inactive)
same,GI50,[34],18.4 µM (inactive)
same,GI50,[35],15.6 µM (inactive)
same,GI50,[36],48.1 µM (inactive)
same,GI50,[37],18.2 µM (inactive)
same,GI50,[38],6.12 µM (inactive)
same,GI50,[39],21.9 µM (inactive)
same,GI50,[40],38.9 µM (inactive)
same,GI50,[41],23.1 µM (inactive)
same,GI50,[42],23.8 µM (inactive)
same,GI50,[43],0.32 µM (active)
same,GI50,[44],7.01 µM (inactive)
same,GI50,[45],4.12 µM (inactive)
same,GI50,[46],44 µM (inactive)
same,GI50,[47],30.8 µM (inactive)
same,GI50,[48],34.8 µM (inactive)
same,GI50,[49],> 100 µM (inactive)
same,GI50,[50],10.9 µM (inactive)
same,GI50,[51],17.3 µM (inactive)
same,GI50,[52],13.8 µM (inactive)
same,GI50,[54],7.67 µM (inactive)
same,GI50,[55],17.4 µM (inactive)
same,GI50,[56],19.9 µM (inactive)
same,GI50,[57],19.1 µM (inactive)
